Laboratory results: PubChem BioAssay AID330 (DTP/NCI, 2004)
Values joined by “and” are separate entries in the source; they are usually repeats but may differ in a detail not shown here. Identical values can stand only once. Toxic doses and inconclusive results are not listed. The calls were made as follows: active = survival T/C of 150% or more; inactive = T/C below 125% in these data. Peptide text beside a SMILES is read from it. * marks the point of attachment. Boc = CC(C)(C)OC(=O)*

System: P388 leukemia ip, CD2F1 mice, survival T/C
Assay: NCI In Vivo Anticancer Drug Screen. Data for tumor model P388 Leukemia (intraperitoneal) in CD2F1 (CDF1) mice
Settings: endpoint: median survival time, higher = longer survival
Outline: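 Mice carrying the transplanted tumor received test compound or vehicle. Survival was recorded in each group, and the value is the treated-group measurement divided by that of the vehicle-treated control group.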

[1] = dose: 100.0 mg/kg/injection, schedule: Q04DX003 (ip), vehicle: saline with Tween-80
[2] = dose: 200.0 mg/kg/injection, schedule: Q04DX003 (ip), vehicle: saline with Tween-80
[3] = dose: 50.0 mg/kg/injection, schedule: Q01DX009 (ip), vehicle: saline with Tween-80
[4] = dose: 100.0 mg/kg/injection, schedule: Q01DX009 (ip), vehicle: saline with Tween-80
[5] = dose: 200.0 mg/kg/injection, schedule: Q01DX009 (ip), vehicle: saline with Tween-80
[6] = dose: 12.5 mg/kg/injection, schedule: Q01DX005 (ip), vehicle: saline with Tween-80
[7] = dose: 25.0 mg/kg/injection, schedule: Q01DX005 (ip), vehicle: saline with Tween-80
[8] = dose: 50.0 mg/kg/injection, schedule: Q01DX005 (ip), vehicle: saline with Tween-80
[9] = dose: 25.0 mg/kg/injection, schedule: Q01DX009 (ip), vehicle: other
[10] = dose: 50.0 mg/kg/injection, schedule: Q01DX009 (ip), vehicle: other
[11] = dose: 100.0 mg/kg/injection, schedule: Q01DX009 (ip), vehicle: other
[12] = dose: 100.0 mg/kg/injection, schedule: Q01DX005 (ip), vehicle: saline with Tween-80
[13] = dose: 100.0 mg/kg/injection, schedule: Q01DX001 (ip), vehicle: saline with Tween-80
[14] = dose: 200.0 mg/kg/injection, schedule: Q01DX001 (ip), vehicle: saline with Tween-80
[15] = dose: 50.0 mg/kg/injection, schedule: Q01DX005 (ip), vehicle: Klucel (hydroxypropylcellulose) (HPC)
[16] = dose: 100.0 mg/kg/injection, schedule: Q01DX005 (ip), vehicle: Klucel (hydroxypropylcellulose) (HPC)
[17] = dose: 200.0 mg/kg/injection, schedule: Q01DX005 (ip), vehicle: Klucel (hydroxypropylcellulose) (HPC)
[18] = dose: 200.0 mg/kg/injection, schedule: Q01DX005 (ip), vehicle: saline with Tween-80
[19] = dose: 50.0 mg/kg/injection, schedule: Q01DX009 (ip), vehicle: saline
[20] = dose: 100.0 mg/kg/injection, schedule: Q01DX009 (ip), vehicle: saline
[21] = dose: 200.0 mg/kg/injection, schedule: Q01DX009 (ip), vehicle: saline

Measured: T/C

CNc1nc(N)nc(Nc2ccc(I)cc2)c1N=O
inactive: [1] 109 % of control | [2] 109 % of control | dose: 400.0 mg/kg/injection, schedule: Q04DX003 (ip), vehicle: saline with Tween-80 109 % of control

O=C(/C=C/c1ccc2c(c1)OCO2)c1ccc(Cl)cc1
inactive: [3] 86 % of control | [4] 100 % of control | [5] 95 % of control

Cc1cc2c(cc1NCc1ccccc1)C(C)C(=O)CCC(=O)N2Cc1ccccc1 (centres undefined)
inactive: [6] 101 % of control | [7] 99 % of control | [8] 90 % of control and 94 % of control

COc1cc2nnn(-c3ccncc3)c2cc1OC
inactive: [9] 100 % of control | [10] 93 % of control | [11] 99 % of control | dose: 200.0 mg/kg/injection, schedule: Q01DX009 (ip), vehicle: other 96 % of control | dose: 400.0 mg/kg/injection, schedule: Q01DX009 (ip), vehicle: other 96 % of control

CC(/C=C/c1ccccc1)=N\NS(=O)(=O)c1ccc(C)cc1
inactive: [8] 95 % of control | [12] 91 % of control

C(=Nc1ccc2c(c1)Cc1ccccc1-2)c1ccc2ccccc2c1
inactive: dose: 400.0 mg/kg/injection, schedule: Q04DX002 (ip), vehicle: saline 90 % of control

COC(=O)Cn1/c(=N\N=C\c2ccc(C)cc2)sc2ccccc21
inactive: [13] 91 % of control | [14] 91 % of control | dose: 400.0 mg/kg/injection, schedule: Q01DX001 (ip), vehicle: saline with Tween-80 89 % of control

CCCC(C(=O)OC)C(=O)C(C)c1nc2n(c1O)C(=N)N=N2 (centres undefined)
inactive: dose: 50.0 mg/kg/injection, schedule: Q01DX005 (ip), vehicle: saline 97 % of control | dose: 100.0 mg/kg/injection, schedule: Q01DX005 (ip), vehicle: saline 97 % of control | dose: 200.0 mg/kg/injection, schedule: Q01DX005 (ip), vehicle: saline 98 % of control

COc1ccc(CSC(=S)Nc2ccc(Cl)c([N+](=O)[O-])c2)cc1
inactive: dose: 50.0 mg/kg/injection, schedule: Q01DX009 (ip), vehicle: suspension in saline 108 % of control | dose: 100.0 mg/kg/injection, schedule: Q01DX009 (ip), vehicle: suspension in saline 99 % of control | dose: 200.0 mg/kg/injection, schedule: Q01DX009 (ip), vehicle: suspension in saline 99 % of control

COC(=O)C1CC2(C(=O)O)CC(C(=O)O)(CC(C(=O)OC)C2=O)C1=O (centres undefined)
inactive: dose: 50.0 mg/kg/injection, schedule: Q04DX003 (ip), vehicle: saline with Tween-80 101 % of control | [1] 101 % of control | [2] 104 % of control

[NH-]C(CO)C(O)c1ccccc1.[NH-]C(CO)C(O)c1ccccc1.[NH-]C(CO)C(O)c1ccccc1.[Pr+3] (centres undefined)
inactive: [15] 103 % of control | [16] 97 % of control | [17] 99 % of control

Cc1cc(NC(=S)Nc2ccccc2)c(NC(=S)Nc2ccccc2)cc1C
inactive: dose: 25.0 mg/kg/injection, schedule: Q01DX009 (ip), vehicle: Klucel (hydroxypropylcellulose) (HPC) 97 % of control | dose: 50.0 mg/kg/injection, schedule: Q01DX009 (ip), vehicle: Klucel (hydroxypropylcellulose) (HPC) 100 % of control | dose: 100.0 mg/kg/injection, schedule: Q01DX009 (ip), vehicle: Klucel (hydroxypropylcellulose) (HPC) 98 % of control | dose: 200.0 mg/kg/injection, schedule: Q01DX009 (ip), vehicle: Klucel (hydroxypropylcellulose) (HPC) 92 % of control | dose: 400.0 mg/kg/injection, schedule: Q01DX009 (ip), vehicle: Klucel (hydroxypropylcellulose) (HPC) 106 % of control

CCCCN(CCCC)CCNc1ccc(C)c2sc3cc(C)ccc3c(=O)c12
inactive: [8] 116 % of control | [12] 102 % of control | [18] 98 % of control

C[CH2][GeH][CH2]C.C[CH2][Ge]([CH2]C)[CH2]C
inactive: [19] 93 % of control | [20] 90 % of control

CC1=CC=CC(C)(C(Cl)Cl)C1=O (centres undefined)
inactive: [3] 109 % of control | [4] 104 % of control | [5] 109 % of control

C=CCn1cc2c3c(cccc31)C1CC(C)CN(C)C1C2 (centres undefined)
inactive: [8] 99 % of control | [12] 111 % of control

O=C1c2ccccc2COC1c1ccccc1 (centres undefined)
inactive: [19] 108 % of control | [20] 111 % of control | [21] 118 % of control

COC(=O)C1C(=O)C(NC(=O)CCCCl)C(c2ccccc2)C(C(=O)OC)C1=O (centres undefined)
inactive: [6] 103 % of control | [7] 106 % of control | [8] 99 % of control | dose: 60.0 mg/kg/injection, schedule: Q01DX005 (ip), vehicle: saline with Tween-80 101 % of control | [12] 102 % of control | dose: 120.0 mg/kg/injection, schedule: Q01DX005 (ip), vehicle: saline with Tween-80 94 % of control | [18] 103 % of control | dose: 240.0 mg/kg/injection, schedule: Q01DX005 (ip), vehicle: saline with Tween-80 97 % of control

O=C(NC(Cc1ccccc1F)C(=O)O)c1ccccc1 (centres undefined)
inactive: [9] 98 % of control | [10] 105 % of control | [11] 98 % of control

Clc1ncnc2c1ncn2C1C=CC=CC=C1
inactive: [15] 90 % of control | [16] 92 % of control | [17] 91 % of control

CCCCCCCCCCCCCCCC[N+]1(CCC(C)C)CCOCC1
inactive: dose: 100.0 mg/kg/injection, schedule: Q04DX002 (ip), vehicle: Klucel (hydroxypropylcellulose) (HPC) 100 % of control | dose: 200.0 mg/kg/injection, schedule: Q04DX002 (ip), vehicle: Klucel (hydroxypropylcellulose) (HPC) 94 % of control | dose: 400.0 mg/kg/injection, schedule: Q04DX002 (ip), vehicle: Klucel (hydroxypropylcellulose) (HPC) 104 % of control

O=C(C[n+]1ccn(CC(OCc2ccc(Cl)cc2Cl)c2ccc(Cl)cc2Cl)c1)c1ccc(F)cc1 (centres undefined)
inactive: dose: 3.12 mg/kg/injection, schedule: Q01DX005 (ip), vehicle: saline with Tween-80 101 % of control | dose: 6.25 mg/kg/injection, schedule: Q01DX005 (ip), vehicle: saline with Tween-80 95 % of control | [6] 95 % of control

C=CC12COC(=O)C(=C)C1C(O)C1C(=C)C(=O)OC1C2 (centres undefined)
inactive: dose: 0.5 mg/kg/injection, schedule: Q01DX009 (ip), vehicle: saline 97 % of control | dose: 1.0 mg/kg/injection, schedule: Q01DX009 (ip), vehicle: saline 97 % of control | dose: 2.0 mg/kg/injection, schedule: Q01DX009 (ip), vehicle: saline 106 % of control | dose: 4.0 mg/kg/injection, schedule: Q01DX009 (ip), vehicle: saline 110 % of control

C=C1C(=O)C23C(OC(=O)/C=C/c4ccccc4)C1CCC2C12COC3(O)C(O)C1C(C)(C)CCC2O (centres undefined)
inactive: dose: 3.75 mg/kg/injection, schedule: Q01DX009 (ip), vehicle: saline with Tween-80 98 % of control | dose: 7.5 mg/kg/injection, schedule: Q01DX009 (ip), vehicle: saline with Tween-80 95 % of control | dose: 15.0 mg/kg/injection, schedule: Q01DX009 (ip), vehicle: saline with Tween-80 101 % of control | dose: 30.0 mg/kg/injection, schedule: Q01DX009 (ip), vehicle: saline with Tween-80 98 % of control

C=C(C)C(=O)OCCC[Si](OCCOC)(OCCOC)OCCOC
inactive: [19] 95 % of control | [20] 95 % of control | [21] 106 % of control

CSCCC(NCc1c(O)ccc2c(C)cc(=O)oc12)C(=O)O (centres undefined)
inactive: dose: 60.0 mg/kg/injection, schedule: Q01DX005 (ip), vehicle: Klucel (hydroxypropylcellulose) (HPC) 93 % of control | dose: 120.0 mg/kg/injection, schedule: Q01DX005 (ip), vehicle: Klucel (hydroxypropylcellulose) (HPC) 98 % of control | dose: 240.0 mg/kg/injection, schedule: Q01DX005 (ip), vehicle: Klucel (hydroxypropylcellulose) (HPC) 99 % of control

CC1C(=O)C=C(c2ccccc2)C1(O)c1ccccc1 (centres undefined)
inactive: [13] 104 % of control | [14] 103 % of control

COC(=O)C(Cc1ccccc1)NC(=O)C(Cc1ccccc1)NC(=O)OC(C)(C)C (stereo not drawn) (Boc-Phe-Phe-OMe; configuration not given here)
inactive: [15] 97 % of control | [16] 95 % of control | [17] 101 % of control
